Experimental data reported in paper PMC11364541 (Nature Communications, 2024).

Biological target: T1, SLC13A3 (Homo sapiens, UniProt Q8WWT9)
T1 sequence (Q8WWT9 1-602): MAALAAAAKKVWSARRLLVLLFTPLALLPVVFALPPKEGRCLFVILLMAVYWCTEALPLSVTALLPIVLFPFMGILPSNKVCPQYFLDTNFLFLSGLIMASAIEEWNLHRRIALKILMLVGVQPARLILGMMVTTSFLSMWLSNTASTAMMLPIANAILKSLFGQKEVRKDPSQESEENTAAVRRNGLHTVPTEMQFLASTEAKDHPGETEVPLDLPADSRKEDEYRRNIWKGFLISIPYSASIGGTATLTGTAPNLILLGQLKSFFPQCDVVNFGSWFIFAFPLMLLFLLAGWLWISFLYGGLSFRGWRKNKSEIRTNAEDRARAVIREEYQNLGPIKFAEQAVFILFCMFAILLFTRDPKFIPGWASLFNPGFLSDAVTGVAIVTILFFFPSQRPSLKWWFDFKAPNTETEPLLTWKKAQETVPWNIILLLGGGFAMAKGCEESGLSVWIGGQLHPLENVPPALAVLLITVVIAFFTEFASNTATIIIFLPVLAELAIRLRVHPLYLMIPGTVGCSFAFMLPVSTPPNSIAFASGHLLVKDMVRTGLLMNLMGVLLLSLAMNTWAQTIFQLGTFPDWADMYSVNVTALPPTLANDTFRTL
Experiment: inhibition of […]-succinate uptake in SLC13A3-transfected HEK293 cells
Assay type: cell-based

Work on `N[C@@H](CCC(=O)N[C@@H](CS)C(=O)NCC(=O)O)C(=O)O` [GSH, glutathione] yielded an IC50 of 1890 µM.
